According to US20050142068A1, “Retinal toxicity screening methods” (Pfizer Inc, priority 2003, published 2005):

Key:
retina = conditions: literature reports; cited from earlier work
RPE-J cells = experiment: Assay to identify retinal toxic agents: integrin marker fluorescence in RPE-J cells, confocal microscopy; assay type: cell-based, rat; conditions: 50 nM integrin marker, one hour
Text: For each figure, the photomicrograph on the left is made using two excitation wavelengths—488 nm (argon laser) for the integrin marker peptide and 633 nm (HeNe laser) for TOTO®-3 iodide. The integrin peptide marker fluoresces at 520 nm and TOTO®-3 iodide fluoresces at 660 nm. The photomicrograph on the right is of the identical cells as those in the left micrograph, but under 488 nm excitation alone.
RPE-J cells were plate cultured in high glucose DMEM medium (cat. no. 10313021, Invitrogen, Carlsbad, Calif.) containing 4% fetal calf serum (cat. no. 12319018, Invitrogen) at 33° C. under 5-10% CO2 atmosphere. When confluence of about 80% was reached (after about seven days), the medium was removed from the culture dish and the cells on the bottoms were washed with 0.25% trypsin-EDTA (cat. no. 25200056, Invitrogen) for three and one-half to five minutes. Following trypsinization the cells were centrifuged at 500-600 RPM for five minutes and resuspended in high glucose DMEM medium containing 4% fetal calf serum. The cells were plated in a four-chamber slide (1.7 cm^2 per chamber) at 50,000 cells per chamber. When confluence of about 80% was reached, the cells were gently wash the cells in warm phosphate buffered saline. […] Fluorescence was detected at 520 nm for the integrin marker peptide and at 660 nm for TOTO®-3 iodide.

SMILES | damage to the retina reported as a result of exposure (retina) | visibility of integrin peptide marker fluorescence (RPE-J cells; 1 μM tamoxifen, 488 nm excitation (FIG. 3)) | visibility of integrin peptide marker fluorescence (RPE-J cells; 25 μM tamoxifen, 488 nm excitation (FIG. 4))
CN(C)CCCN1c2ccccc2Sc2ccc(Cl)cc21 [chlorpromazine] | retinopathy |  | 
CCN(CC)CCCC(C)Nc1ccnc2cc(Cl)ccc12 (stereo not shown) [cloroquine] | retinopathy |  | 
CC/C(=C(\c1ccccc1)c1ccc(OCCN(C)C)cc1)c1ccccc1 [tamoxifen] |  | clearly visible | highly visible
